Data as given in patent US20050009840A1 (SUGEN, INC., priority 2003, published 2005).

Target: T1, Met kinase domain (GST fusion protein) (Homo sapiens, UniProt P08581)
T1 construct: Purified GST fusion protein containing the Met kinase domain
Experiment: Met transphosphorylation assay (ELISA, poly(glu-tyr) substrate);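 also: Cell-free ELISA with plate-bound poly(Glu:Tyr 4:1) phosphorylated by GST-fused Met kinase domain plus ATP and Mn2+, phosphotyrosine detected by anti-phosphotyrosine antibody with HRP and ABTS read-out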
Type: biochemical
Details: plain numbers in column Met IC50 (μM) of Table 2; read-out: Met IC50

T1 sequence (P08581 1078-1345 limits assumed): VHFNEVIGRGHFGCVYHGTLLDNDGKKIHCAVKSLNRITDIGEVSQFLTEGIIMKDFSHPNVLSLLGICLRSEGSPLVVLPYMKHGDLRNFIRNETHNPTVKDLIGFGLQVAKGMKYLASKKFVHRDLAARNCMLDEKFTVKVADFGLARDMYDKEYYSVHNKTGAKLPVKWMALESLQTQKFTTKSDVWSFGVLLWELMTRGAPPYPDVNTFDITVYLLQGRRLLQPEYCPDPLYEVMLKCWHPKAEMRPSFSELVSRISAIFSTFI

Row | IC50 | SMILES
1 | 0.0742 µM | CC(Oc1cc(-c2cc(C(=O)N3CCN(C)CC3)ccn2)cnc1N)c1c(Cl)ccc(F)c1Cl (centres unmarked) [Example I-511, {6′-Amino-5′-[1-(2,6-dichloro-3-fluoro-phenyl)-ethoxy]-[2,3′]bipyridinyl-4-yl}-(4-methyl-piperazin-1-yl)-methanone]
2 | 0.0629 µM | CC(Oc1cc(-c2cccc(C(=O)N3CCN(C)CC3)n2)cnc1N)c1c(Cl)ccc(F)c1Cl (centres unmarked) [Example I-512, {6′-Amino-5′-[1-(2,6-dichloro-3-fluoro-phenyl)-ethoxy]-[2,3′]bipyridinyl-6-yl}-(4-methyl-piperazin-1-yl)-methanone]
3 | 0.034 µM | CC(Oc1cc(-c2cncc(C(=O)N3CCN(C)CC3)c2)cnc1N)c1c(Cl)ccc(F)c1Cl (centres unmarked) [Example I-513, {6′-Amino-5′-[1-(2,6-dichloro-3-fluoro-phenyl)-ethoxy]-[3,3′]bipyridinyl-5-yl}-(4-methyl-piperazin-1-yl)-methanone]
4 | 0.0213 µM | CC(Oc1cc(-c2ccc(C(=O)N3CCN(C)CC3)nc2)cnc1N)c1c(Cl)ccc(F)c1Cl (centres unmarked) [Example I-514, {6′-Amino-5′-[1-(2,6-dichloro-3-fluoro-phenyl)-ethoxy]-[3,3′]bipyridinyl-6-yl}-(4-methyl-piperazin-1-yl)-methanone]
5 | 0.0387 µM | CC(Oc1cc(-c2ccnc(C(=O)N3CCN(C)CC3)c2)cnc1N)c1c(Cl)ccc(F)c1Cl (centres unmarked) [Example I-515, {6-Amino-5-[1-(2,6-dichloro-3-fluoro-phenyl)-ethoxy]-[3,4′]bipyridinyl-2′-yl}-(4-methyl-piperazin-1-yl)-methanone]

Continued, compound first:

Row | SMILES | IC50
6 | Nc1ncc(-c2cncnc2)cc1OCc1ccc(Cl)cc1 [Example I-498, 3-(4-Chloro-benzyloxy)-5-pyrimidin-5-yl-pyridin-2-ylamine] | > 20 µM
7 | Nc1ccc(-c2cnc(N)c(OCc3ccc(Cl)cc3)c2)cn1 [Example I-499, 5-(4-Chloro-benzyloxy)-[3.3═]bipyridinyl-6,6′-diamine] | > 20 µM
8 | Nc1ncc(-c2ccccn2)cc1OCc1c(F)ccc(F)c1Cl [Example I-500, 5′-(2-Chloro-3,6-difluoro-benzyloxy)-[2,3′]bipyridinyl-6′-ylamine] | 1.8 µM
9 | Nc1ncc(-c2ccncc2)cc1OCc1c(F)ccc(F)c1Cl [Example I-502, 5-(2-Chloro-3,6-difluoro-benzyloxy)-[3,4′]bipyridinyl-6-ylamine] | 0.211 µM
10 | Nc1ncc(-c2cncnc2)cc1OCc1c(F)ccc(F)c1Cl [Example I-503, 3-(2-Chloro-3,6-dlfluoro-benzyloxy)-5-pyrimidin-5-yl-pyridin-2-ylamine] | 2.15 µM
11 | Nc1ccc(-c2cnc(N)c(OCc3c(F)ccc(F)c3Cl)c2)cn1 [Example I-504, 5-(2-Chloro-3,6-difluoro-benzyloxy)-[3,3′]bipyridinyl-6,6′-diamine] | 0.209 µM
12 | Nc1ncc(-c2ccccn2)cc1OCc1c(Cl)cccc1Cl [Example I-505, 5-′(2,6-Dichloro-benzyloxy)-[2,3′]bipyridinyl-6′-ylamine] | 2.84 µM
13 | Nc1ncc(-c2cccnc2)cc1OCc1c(Cl)cccc1Cl [Example I-506, 5-(2,6-Dichloro-benzyloxy)-[3,3′]bipyridinyl-6-ylamine] | 2.71 µM
14 | Nc1ncc(-c2ccncc2)cc1OCc1c(Cl)cccc1Cl [Example I-507, 5-(2,6-Dichloro-benzyloxy)-[3,4′]bipyridinyl-6-ylamine] | 1.3 µM
15 | Nc1ncc(-c2cncnc2)cc1OCc1c(Cl)cccc1Cl [Example I-508, 3-(2,6-Dichloro-benzyloxy)-pyrimidin-5-yl-pyridin-2-ylamine] | 10.3 µM
16 | Nc1ccc(-c2cnc(N)c(OCc3c(Cl)cccc3Cl)c2)cn1 [Example I-509, 5-(2,6-Dichloro-benzyloxy)-[3,3′]bipyridinyl-6,6′-diamine] | 0.578 µM
17 | CC(Oc1cc(-c2ccc(N)nc2)cnc1N)c1c(Cl)ccc(F)c1Cl (centres unmarked) [Example I-510, 5-[1-(2,6-Dichloro-3-fluoro-phenyl)-ethoxy]-[3,3′]bipyridinyl-6,6′-diamine] | 0.0167 µM
